Results: ChEMBL document CHEMBL1156368, “(+)-epi-Alpha-bisabolol [correction of bisbolol] is the wound-healing principle of Peperomia galioides: investigation of the in vivo wound-healing activity of related terpenoids” (J Nat Prod, 2001)
≈ marks a conversion by molar mass, not a printed value. Calls of active or inactive are those of the source. The rule behind the calls is not given here.

Tests used:
Mus musculus = species: Mus musculus; test: Cicatrizant activity in mouse assessed as wound healing by tensile strength method; assay type: functional
[1] = Growth inhibition of mouse 3T3 cells; assay type: cell-based; settings: NIH3T3 cells

With `C=CC(C)(O)CC/C=C(\C)CCC=C(C)C` (stereo not drawn) the ED50 (Mus musculus) was “inactive”.

`CC1=CC[C@@H](C(C)(C)O)CC1` [ALPHA-TERPINEOL] gave an ED50 (Mus musculus) of 240 mg/kg and a GI50 [1] of 17 µg/mL (≈ 110 µM).

Molecule `CC(C)=CCC[C@](C)(O)[C@H]1CC=C(C)CC1` has a GI50 [1] of 8 µg/mL (≈ 36 µM).

In the case of `CC(C)=CCC/C(C)=C/CC/C(C)=C/CO`, the ED50 (Mus musculus) is reported as “inactive”.

`COc1ccc2c(=O)oc3c(OC)cc(CCN(C)C)c4c(=O)oc1c2c34` [TASPINE] gave an ED50 (Mus musculus) of 15 mg/kg.

For `CC(C)=CCC[C@](C)(O)[C@@H]1CC=C(C)CC1` [LEVOMENOL], the ED50 (Mus musculus) was 228 mg/kg and the GI50 [1] was 84 µg/mL (≈ 378 µM).
